In US4272437A, “Antibacterial agents, and 4-thio azetidinone intermediates” (priority 1979, dated 1981):
≈ marks a conversion by molar mass, not a printed value. Read-outs that look alike come from different tables or passages of the source.

Legend:
[1] = tested on: Gram-negative and Gram-positive organisms; details: literature; cited from earlier work
[2] = tested on: β-lactamases; details: literature; cited from earlier work
[3] = in vitro and in vivo, literature; cited from earlier work
[4] = tested on: Klebsiella species A20468; assay: MIC, tube dilution, Klebsiella species A20468; type: cell-based; details: Klebsiella species (K. pneumoniae) A20468; overnight 37° C.; read-out: Minimum Inhibitory Concentration (M.I.C.)
Source text: (§1) Representative compounds of the present invention were subjected to in vitro antibiotic screening against a variety of microorganisms.

[5] = tested on: S. aureus A9606; assay: In vivo protection of mice, lethal infection with S. aureus A9606; details: Staphylococcus aureus, IM, 2 treatments, 8 × 10^8 organisms, read-out: PD50
Description: (§2) Representative compounds of the present invention were also tested in vivo in mice and their PD50 (dose of compound in mg/kg required to protect 50% of the treated mice against an otherwise lethal infection of a micro-organism) values determined with respect to the test organisms shown below.

[6] = tested on: Staph. aureus (Pen-Res) A-9606; assay: MIC, tube dilution, Staphylococcus aureus A9606 (Pen-Res); type: cell-based; details: Staphylococcus aureus, Staph. aureus A9606 (Pen-Res); overnight 37° C.; read-out: Minimum Inhibitory Concentration (M.I.C.)
Source text: as §1

[7] = tested on: S. pneumoniae A9585; assay: In vivo protection of mice, lethal infection with S. pneumoniae A9585; details: Streptococcus pneumoniae, A9585, im, 2 treatments, read-out: PD50
Description: as §2

[8] = tested on: Providencia stuartii A21205; assay: MIC, tube dilution, Providencia stuartii (Pr. rettgeri) A21205; type: cell-based; details: Providencia stuartii, A21205, Providencia stuartii (Pr. rettgeri) A21205; overnight 37° C.; read-out: Minimum Inhibitory Concentration (M.I.C.)
Source text: as §1

[9] = tested on: Str. faecalis A-20688; assay: MIC, tube dilution, Streptococcus faecalis A20688; type: cell-based; details: Enterococcus faecalis, A20688, Str. faecalis A20688; overnight 37° C.; read-out: Minimum Inhibitory Concentration (M.I.C.)
Source text: as §1

[10] = tested on: K. pneumoniae A15130; assay: In vivo protection of mice, lethal infection with K. pneumoniae A15130; details: Klebsiella pneumoniae, IM, 2 treatments, 1.2 × 10^3 organisms, read-out: PD50
Description: as §2

[11] = tested on: Ps. aeruginosa A-21213; assay: MIC, tube dilution, Pseudomonas aeruginosa A21213; type: cell-based; details: Pseudomonas aeruginosa A21213; overnight 37° C.; read-out: Minimum Inhibitory Concentration (M.I.C.)
Source text: as §1

[12] = tested on: E. coli A-20341-1; assay: MIC, tube dilution, Escherichia coli A20341-1; type: cell-based; details: Escherichia coli, A203411, E. coli A20341-1; overnight 37° C.; read-out: Minimum Inhibitory Concentration (M.I.C.)
Source text: as §1

[13] = tested on: S. pyogenes A9604; assay: In vivo protection of mice, lethal infection with S. pyogenes A9604; details: Streptococcus pyogenes, A9604, im, 2 treatments, read-out: PD50
Description: as §2

[14] = tested on: S. aureus A9537; assay: In vivo protection of mice, lethal infection with S. aureus A9537; details: IM, 2 treatments; for ED50: Staphylococcus aureus, A9537, im, read-out: PD50
Description: as §2

| SMILES | antibacterial activity [1] | β-lactamase inhibition [2] | enhancement of activity of penicillins and cephalosporins [3] | MIC [4] | ED50 [5] | MIC [6] | ED50 ([7]; 3 × 10^4 organisms) | ED50 ([7]; 3.4 × 10^4 organisms) | MIC [8] | MIC [9] | ED50 [10] | MIC [11] | MIC [12] | ED50 ([13]; 1.2 × 10^3 organisms) | ED50 ([13]; 8 × 10^3 organisms) | PD50 ([14]; 1.1 × 10^6 organisms, listed as Prep. 2,3) | ED50 ([14]; 1.1 × 10^6 organisms) | ED50 ([14]; 7.8 × 10^5 organisms) |
| --- | --- | --- | --- | --- | --- | --- | --- | --- | --- | --- | --- | --- | --- | --- | --- | --- | --- | --- |
| O=C(O)[C@H]1/C(=C/CO)O[C@@H]2CC(=O)N21 [clavulanic acid] | low order of antibacterial activity | inhibits the action of certain β-lactamases | enhances the in vitro and in vivo activity of some penicillins and cephalosporins |  |  |  |  |  |  |  |  |  |  |  |  |  |  |  |
| CC1=C(C(=O)O)N2C(=O)C[C@H]2S1 [Preparation 2,3, 2-Methylpenem-3-carboxylic Acid] |  |  |  | > 125 µg/mL | > 50 mg/kg | 1 µg/mL (≈ 5.4 µM) | > 12.5 mg/kg | > 50 mg/kg | 4 µg/mL (≈ 21.6 µM) | 32 µg/mL (≈ 173 µM) | > 400 mg/kg | > 125 µg/mL | 16 µg/mL (≈ 86.4 µM) | > 50 mg/kg | > 12.5 mg/kg | 22 mg/kg/treatment | 13 mg/kg | 13 mg/kg |
